Values quoted from earlier work as cited in patent US7179486B1, “Process for preparing sustained release tablets” (Nostrum Pharmaceuticals, Inc., priority 1997, dated 2007).

O=C(O)c1cccnc1 [niacin, Niacin]
dosage release within a one hour period causing a flushing response in most subjects: more than 75 mg
